Reference: patent US20230210108A1, “ANTIMICROBIAL COATING FOR POLYMERIC FOOD PACKAGING” (VACOPAK INDUSTRIES LTD., priority 2020, published 2023)

Columns and labels:
[1] = test system: Gram-positive bacteria Listeria; assay: Antimicrobial activity of coatings on PET surfaces against Gram-positive bacteria (CFU count); format: cell-based; settings: agent 5 mg/ml embedded in chitosan or alginate matrix, coated on PET; FIG. 5B
Method: (§1) Air plasma was applied onto each surface for three (3) minutes prior to coating. The surfaces used in the Examples were polyethylene (PET) sheets. The coating composition was prepared by suspending polymer(s) in water together with the antimicrobial agent(s). The coating composition was then applied on the surface, forming a layer of about 25 µm, using BIUGED and BGD219 instruments in a speed of 6 mm/sec, as shown in FIG. 4. Each coating composition was prepared a few hours, or about 24 hours prior to being applied on the surface. The antimicrobial activity of several coatings was tested against Gram-negative bacteria E. Coli and Gram-positive bacteria Listeria (FIGS. 5A and 5B, respectively, n=3 per each test). Each test was repeated twice (suffix A and B; in FIGS. 5A to 5B).

[2] = test system: Gram-negative bacteria E. Coli; assay: Antimicrobial activity of coatings on PET surfaces against Gram-negative bacteria (CFU count); format: cell-based; settings: agent 5 mg/ml embedded in chitosan or alginate matrix, coated on PET; FIG. 5A
Method: as §1

| Compound | reduction of viral count, as measured in colony-forming units (CFU) [1] | reduction of bacterial count (CFU) [2] |
| --- | --- | --- |
| O=C1O[C@H]([C@@H](O)CO)C(O)=C1O [ascorbic acid, Ascorbic acid] | at least one order of magnitude | at least one order of magnitude |
| CCCCCCCCCCCC(=O)N[C@@H](CCCN=C(N)N)C(=O)OCC [lauryl alginate, Lauryl alginate] | at least one order of magnitude | at least one order of magnitude |
| Nisin | high cytotoxicity | – |
